Assay results published in patent US20200093864A1, “NOVEL THERAPEUTIC STEM CELL COMPOSITIONS WITH AN ACTIVE OXIDATIVE PHOSPHORYLATION SITE AND THEIR PREPARATION” (priority 2018, published 2020).

How the values were obtained:
[1] = tested on: human pancreatic carcinoma cells; settings: added in the culture medium, after 4 days, compared with ethanol vehicle controls; cited from earlier work
[2] = tested on: human pancreatic cancer cells growing in athymic mice; settings: direct injection into subcutaneous tumors, cited from earlier work; for tumor growth inhibition (in words): 6 weeks, vs propylene glycol vehicle controls
[3] = tested on: human adenocarcinoma cells; experiment: Growth of cultured human adenocarcinoma cells (Example 7); assay type: cell-based; settings: for growth of cultured human adenocarcinoma cells (in words): Table 2 summary; for cell growth (10^5): cell numbers on day 4, 10^5 cells passaged day 0; for cell growth (10^5) / cell growth (% of control): TR2Co and TR 30 mg/dL, hMSC 10^5 added; for cell growth (% of control): day 4
Method: Human adenocarcinoma cells were cultured in RPMI medium with added fetal bovine serum and antibiotics, as reported by McCully K S et al in Research Communications in Chemical Pathology and Pharmacology, 1992; 77: 125-128. Equal numbers (10^5) of adenocarcinoma cells were trypsinized and passaged on day 0, and the cells were refed with media containing test compounds on days 1 and 3. Cell numbers were determined by trypsinization on day 4. Thioretinaco (TR2Co) and thioretinamide (TR) were synthesized, as previously described (McCully U.S. Pat. No. 4,618,685; McCully U.S. Pat. No. 4,925,931) and dissolved in absolute ethanol. Propylene glycol (PG) was added to the ethanol solutions of the test compounds, the ethanol was evaporated under reduced pressure at 37° C., and the resulting solutions in propylene glycol were added to the culture media. Human mesenchymal stem cells (hMSC) were incubated with cell culture medium containing TR2Co, NAD^+ and H2PO4^− in an atmosphere containing 5% ozone (O3), to produce activated stem cells and 10^5 hMSC were added to the culture medium containing adenocarcinoma cells. Equal numbers (10^5) of hMSC without exposure to TR2Co, O3, NAD^+ and H2PO4^− served as controls.

[4] = tested on: cultured normal fibroblasts; settings: thioretinaco in culture medium; cited from earlier work
[5] = tested on: person with metastatic prostate cancer; experiment: Example 1: intravenous activated stem cell therapy, patient case; assay type: in vivo, human; settings: following luprolide therapy, over three months; 8.0 before
Method: Preparation of human mesenchymal stem cells containing an increased concentration of the active site of oxidative phosphorylation, TR2CoO3O2NAD^+H2PO4^−, is accomplished by incubation of stem cells in cell culture medium containing thioretinaco (TR2Co), 30 mg/dL, and […] (NAD^+H2PO4^−), 30 mg/dL, and exposed to an atmosphere containing ozone […], 1-10% by volume. Human mesenchymal stem cells are isolated by liposuction or by bone marrow aspiration, followed by collagenase digestion, filtration of cellular debris, centrifugation and adherence of the cellular pellet to the surface of the cell culture dish. Adherent mesenchymal stem cells are maintained in cell culture medium for 4-5 days at about 37 degrees centigrade at atmospheric pressure until 90% confluency is achieved, subsequently passaged by trypsinization four additional times, and washed in buffered saline for use. Aliquots of the mesenchymal stem cells are checked for cell viability, and absence of fungal, bacterial, endotoxin and mycoplasma contamination. Multiple doses of 10^8 cells are delivered in 100 ml of sterile saline intravenously to achieve a total dose of 2.5×10^10 cells over a period of two years. The final concentration of TR2CoO3O2NAD^+H2PO4^− within the activated stem cells is approximately 10-300 μg/g.
A person was evaluated for treatment of metastatic prostate cancer. […]

Row | Compound | cellular growth (in words) [1] | tumor growth inhibition (in words) [2] | growth of cultured human adenocarcinoma cells (in words) [3] | cell growth (10^5) [3] | cell growth (% of control) [3] | also measured
1 | CC1=C(/C=C/C(C)=C/C=C/C(C)=C/C(=O)NC2CCSC2=O)C(C)(C)CCC1 (stereo not drawn) [TR, N-homocysteine thiolactonyl retinamide] | inhibition of cellular growth | no growth inhibition | significantly inhibit | 1.4 ± 0.50 10^5 | 19 % of control | –
2 | C/C1=C2/[N-][C@H]([C@H](CC(N)=O)[C@@]2(C)CCC(=O)NC[C@@H](C)OP(=O)([O-])O[C@H]2[C@@H](O)[C@@H](n3cnc4cc(C)c(C)cc43)O[C@@H]2CO)[C@]2(C)N=C(/C(C)=C3N=C(/C=C4N=C1[C@@H](CCC(N)=O)C\4(C)C)[C@@H](CCC(N)=O)[C@]\3(C)CC(N)=O)[C@@H](CCC(N)=O)[C@]2(C)CC(N)=O.[CH2-][C@H]1O[C@@H](n2cnc3c(N)ncnc32)[C@H](O)[C@@H]1O.[Co] [adenosyl cobalamin] | – | no growth inhibition | – | – | – | –
3 | N[C@H]1CCSC1=O.[O-][Cl+3]([O-])([O-])O [homocysteine thiolactone perchlorate] | – | no growth inhibition | – | – | – | –
4 | N-homocysteine thiolactonyl retinamido cobalamin [TR2Co] | inhibition of cellular growth | – | significantly inhibit | 2.5 ± 0.82 10^5 | 33 % of control | reduction of tumor weight ([2]; after 6 weeks of growth, compared with propylene glycol vehicle controls): 50%; growth of cultured normal fibroblasts (in words) [4]: Only the highest concentrations of thioretinaco decrease growth
5 | homocysteine thiolactonyl cobalamin | – | no growth inhibition | – | – | – | –
6 | luprolide | – | – | – | – | – | PSA value [5]: 0.1 ng/mL
